What was measured:
TBP-2^−/− mice = experiment: Glucose or oleic acid supplementation in drinking water while deprived of other food, TBP-2 knockout mice; assay type: in vivo
Procedure: Blood was collected from the tail veins. Triglyceride concentrations were measured using a Wako Triglyceride Test kit according to the manufacturer's instructions (Wako Pure Chemical Industries, Ltd.). Serum insulin levels were quantified using a Mouse Insulin ELISA kit (Shibayagi Co. Ltd.). The other blood assays were performed by Falco Biosystems Ltd. The liver was removed under anesthesia at appropriate time points, and paraffin sections were prepared. Standard hematoxylin-eosin and Oil Red O staining was performed.
(§1) Glucose and fatty acids are known to be the major energy sources from foods. The anomaly observed in TBP-2^−/− mice strongly indicates the occurrence of nutritional dysmetabolism. To examine this hypothesis, these mice were housed with free access to 20% glucose or 10% oleic acid in drinking water, while deprived of other food.

Wild type mice = experiment: Glucose or oleic acid supplementation in drinking water while deprived of other food, wild type mice; assay type: in vivo, mouse; settings: 20% glucose or 10% oleic acid in drinking water, deprived of other food (data not shown)
Excerpt: as §1

CCCCCCCC/C=C\CCCCCCCC(=O)O [oleic acid]
rescue (survival) of TBP-2^−/− mice (TBP-2^−/− mice; 10% oleic acid in drinking water, deprived of other food (FIG. 9A)): not rescued | symptoms compared with fasted TBP-2^−/− mice (TBP-2^−/− mice; oleic acid supplementation (data not shown)): identical symptoms | survival of wild type mice (Wild type mice): able to survive
